Data from patent publication US12578273B2, “Ph-reversible leuco-BODIPY probe for in situ visualization of extracellular vesicles and their secretion from living cells” (The Chinese University of Hong Kong, priority 2021, dated 2026).

Test: pH-dependent spectroscopic properties (pH titration, absorption and fluorescence)
Format: physicochemical
Procedure: In each step of pH titration, small volumes (2-10 μL) of HCl at appropriate concentrations (0.1, 10^−2, or 10^−3 M) were pipetted directly into the measurement cell, followed by filling up with 2 mL of 1 μM dye-containing solution [either in a mixture of PBS/ethanol 1:1 (v/v) or 0.5% (v/v) DMSO]. The pH was monitored at 298 K using a digital pH meter (827 pH lab) equipped with a Biotrode (Metrohm, Herisau, Switzerland). Calibration of the instrument was performed with standard aqueous solutions of pH 4, 7, and 9 from Metrohm. Absorption and fluorescence measurements were carried out on an Agilent Cary 5000 spectrophotometer and a Horiba Jobin Yvon spectrometer (Nanolog FL3-2iHR), respectively.
We investigated the spectroscopic properties of the fluorescent probe as a function of pH in phosphate-buffered saline (PBS) containing 50% ethanol by UV-vis spectrophotometry and fluorimetry (FIGS. 21A-21F, 22-23).

[1] = pH range of 3-11, C2H5OH/PBS (1:1, v/v)

Row | Structure (SMILES) | onset of the fluorescence peak at 618 nm (pH) (PBS containing 50% ethanol) | red emission peak (PBS containing 50% ethanol) [nm] | longest wavelength absorption band (acidic conditions (pH of about 4), PBS containing 50% ethanol) [nm] | increase in emission at 618 nm (pH drops from 7.4 to 5.5) | increase in emission at 618 nm (pH drops from 7.4 to 6.5) [fold] | increase in emission at 618 nm (pH drops from 7.4 to 7.0) | pKa (corrected pKa) (reappearance of the absorption bands at 602 nm on reacidification with HCl, PBS containing 50% ethanol) | absorbance as a function of pH [1] | fluorescence as a function of pH [1]
1 | CCOC(=O)C(=CC1=[N+]2C(=C(c3ccncc3)c3ccc(C=C(C(=O)OCC)C(=O)OCC)n3[B-]2(F)F)C=C1)C(=O)OCC [BODIPY] | about 7.4 | 618 | 602 | about 15 fold | 8 | about 3 fold | 5.28±0.05 | – | –
2 | CN(C)CCNC(=O)CCc1ccc2n1[B-](F)(F)[N+]1=C(c3ccc[nH]3)C=CC1=C2 [LysoTracker™ Red, reference compound] | – | – | – | – | – | – | – | near-constant | always-on
